Reference: US20140323562A1, “THIOSULFINATE ANTIOXIDANTS AND METHODS OF USE THEREOF” (Universition of Ottawa, priority 2011, published 2014)
Like-named read-outs stand apart in the source and are kept apart here. Marks after values point to notes of the source that are not given here.

Legend:
[1] = Oxidation of egg phosphatidylcholine liposomes containing the fluorescent probe H2B-PMHC; details: for effect on oxidation of liposome-embedded H2B-PMHC with one equivalent of NAC: MeOAMVN- or ABAP-mediated, 4.5-15 μM, equivalent amount of NAC, PBS pH 7.4; for inhibition of oxidation of liposome-embedded H2B-PMHC: MeOAMVN-mediated (0.2 mM), compound 1.5-15 μM; for inhibition of oxidation of liposome-embedded H2B-PMHC / radical trapping at the lipid/water interface: no thiol; for efficacy relative to α-TOH in a lipid bilayer: inferred from no effect at 15 μM (100-fold over H2BPMHC); for radical trapping at the lipid/water interface: water-soluble ABAP-mediated oxidation; for effect of increasing equivalents of NAC on inhibited period: 4.5 μM compound, MeOAMVN and ABAP, NAC 1-5 equiv. (9) or 0-4 equiv. (5)
Experimental: FIG. 1 depicts representative fluorescence intensity-time profiles from MeOAMVN-mediated (0.2 mM) oxidations of egg phosphatidylcholine liposomes (1 mM) containing 0.15 μM H2BPMHC and increasing concentrations (1.5, 3.0, 4.5, 6.0, 7.5 and 15 μM) of 1 (A), 2 (B), 5 (C) and 8 (D—15 μM profile not shown); fluorescence (λex=485 nm; λem=520 nm) was recorded every 50 s;
FIG. 2 depicts representative fluorescence intensity-time profiles from MeOAMVN-mediated (0.2 mM, left) and ABAP-mediated (2.7 mM, right) oxidations of egg phosphatidylcholine liposomes (1 mM) containing 0.15 μM H2B-PMHC and either 2 (A, B) or 9 (C, D) at 4.5 μM (black), 7.5 μM (grey) or 15 μM (light grey) in PBS buffer of pH 7.4 containing an equivalent amount of NAC; panels E and F show the effect of NAC only (4.5, 7.5 and 15 μM); fluorescence (λex=485 nm; λem=520 nm) was recorded every 50 s; and
FIG. 3 depicts representative fluorescence-time profiles from MeOAMVN-mediated (0.2 mM, left) and ABAP-mediated (2.7 mM, right) oxidations of egg phosphatidylcholine liposomes (1 mM) containing 0.15 μM H2B-PMHC and either 4.5 μM 9 (A, B) with 1, 2, 3 or 5 equiv. of NAC or 4.5 μM 5 (C, D) with 0, 1, 2 or 4 equiv. of NAC; fluorescence (λex=485 nm; λem=520 nm) was recorded every 50 s.
To shed some light on this issue, the radical-trapping abilities of 1, 2 and 5 have been studied in unilamellar phosphatidylcholine liposomes—convenient models for the lipid bilayers that make up biological membranes. The relative reactivities of the compounds were determined using H2B-PMHC (6), an analog of α-tocopherol (7 or α-TOH, the most biologically-active form of Vitamin E and Nature's premier lipophilic radical-trapping antioxidant) (G. W. Burton, K. U. Ingold, Acc. Chem. Res. 1986, 19, 194-201), which undergoes a significant fluorescence enhancement upon oxidation by two equivalents of peroxyl radical. In the presence of a good radical-trapping antioxidant, the fluorescence onset is suppressed since the radicals are trapped by the compound under investigation in lieu of reacting with H2B-PMHC.
Initial experiments focused on the ability of either 1 or 2 to inhibit the oxidation of liposome-embedded H2B-PMHC by either lipophilic or hydrophilic peroxyl radicals derived from the azo initiators MeOAMVN (N. Noguchi, H. Yamashita, N. Gotoh, Y. Yamamoto, R. Numano, E. Niki, Free Rad. Biol. Med. 1998, 24, 259-268) and ABAP, (L. R. C. Barclay, S. J. Locke, J. M. MacNeil, J. VanKessel, G. W. Burton, K. U. Ingold, J. Am. Chem. Soc. 1984, 106, 2479-2481) respectively. Representative results are shown for MeOAMVN-mediated oxidations in FIG. 1. […] Since the reactivity of H2B-PMHC is essentially the same as that of α-TOH, the efficacy of 1 and 2 must therefore be less than 1/100 that of α-TOH in a lipid bilayer.
The time required to reach maximum fluorescence in the first phase of the plots in FIG. 1 (ca. 400 counts), which we will hereafter refer to as the ‘inhibited period’, reflects the stoichiometry of the reaction of the antioxidant and the peroxyl radicals. […] Chem. Int. Ed. 2009, 48, 157-160; and R. Amorati, P. T. Lynett, L. Valgimigli, D. A. Pratt, Chem. Eur. J. 2012, 18, 6370-6379)

[2] = Decomposition / Cope elimination half-life (HPLC); format: physicochemical
Source text: The lack of radical-trapping activity of allicin and petivericin obvious from FIGS. 1A and 1B could be due to their partitioning to the aqueous phase, where Cope elimination to produce the reactive sulfenic acids 3 and 4, respectively, is slowed dramatically by H-bonding. (V. Vaidya, K. U. Ingold, D. A. Pratt, Angew. Chem. Int. Ed. 2009, 48, 157-160; P. T. Lynett, K. Butts, V. Vaidya, G. E. Garrett, D. A. Pratt, Org. Biomol. Chem. 2011, 9, 3320-3330; E. Block, Angew. Chem. Int. Ed. Engl. 1992, 31, 1135-1178; and F. Freeman, Y. Kodera, J. Agric. Food Chem. 1995, 43, 2332-2338] However, the half-life for decomposition of allicin in the liposome solutions (determined by HPLC) was extended by only 50% compared to that determined in non-H-bonding organic solvents (˜60 minutes). (V. Vaidya, K. U. Ingold, D. A. Pratt, Angew. Chem. Int. Ed. 2009, 48, 157-160; P. T. Lynett, K. Butts, V. Vaidya, G. E. Garrett, D. A. Pratt, Org. Biomol. Chem. 2011, 9, 3320-3330). This is consistent with a previous report which provides a partition coefficient for allicin in phosphatidylcholine:water of Kp=11 (T. Miron, A. Rabinkov, D. Mirelman, M. Wilchek, L. Weiner, Biochim. Biophys. Acta 2000, 1463, 20-30). The Cope elimination of 3 from petivericin was roughly identical—with a half-life of ˜90 minutes (see Supp. Info.). […]

[3] = chlorobenzene, 37° C., same conditions; cited from earlier work
[4] = Peroxyl radical clock (methyl linoleate oxidation, Z,E:E,E product ratio by HPLC); details: for kinh/kinh (C6BPT): chlorobenzene at 37° C., peroxyl radical clock
Experimental: The kinetics of reaction of p-n-C6H13-BPT with peroxyls was studied using a method based on the peroxyl radical clocks described in Roschek, B.; Tallman, K. A.; Rector, C. L.; Gillmore, J. G.; Pratt, D. A.; Punta, C.; Porter, N. A. J. Org. Chem. 2006, 71, 3527-3532.
Stock solutions of methyl linoleate (“MeLin”) (1.0 M), methoxy 2,2′-Azobis(4-methoxy-2,4-dimethyl valeronitrile) (“MeOAMVN”) (0.1 M), and the thiosulfinates, BPT and p-n-C6H13-BPT 5, were prepared in chlorobenzene. Samples were assembled in 1 mL HPLC autosampler vials with a total reaction volume of 100 μL. Solutions were prepared in the following order to avoid premature oxidation:thiosulfinate (1 mM-7 mM), MeLin (0.10 M) and then MeOAMVN (0.01 M), and diluted to 100 μL with chlorobenzene. The sealed samples were then heated to 37° C. for 2 h. After 2 h, the oxidation was stopped by the addition of butylated hydroxytoluene (“BHT”) (50 μL of 1.0 M solution in hexanes), followed by reduction of the hydroperoxides to alcohols by triphenylphosphine (50 μL of 1 M solution in chlorobenzene). The samples were then diluted to 1 mL with HPLC grade hexanes and analyzed by HPLC (0.5% i-PrOH in hexanes, 1 mL min-1, 40 min, Sun-Fire Silica, 5 mm 4.6×250 mm column, UV detection at 234 nm). The ratio of products (Z,E:E,E) was plotted versus thiosulfinate concentration to derive kH, (Roschek, B.; Tallman, K. A.; Rector, C. L.; Gillmore, J. G.; Pratt, D. A.; Punta, C.; Porter, N. A. J. Org. Chem. 2006, 71, 3527-3532).
The peroxyl radical clock method was used to measure the rate constants for the reaction of a furan-containing thiosulfinate compound (S-(furan-2-ylmethyl) furan-2-ylmethanesulfinothioate) with peroxyl radicals (kinh). The method relies on the competition between the β-fragmentation of a peroxyl radical and its trapping by a H-atom donor. When methyl linoleate is used as a precursor, the reduction of the two initially formed (Z,E)-dienylperoxyl radicals by the antioxidant (A-H in the scheme below) competes with their isomerization to the more thermodynamically stable (E,E)-dienylperoxyl radicals. […]

[5] = going from chlorobenzene to acetonitrile; cited from earlier work
[6] = known from literature under these conditions; cited from earlier work
[7] = radicals generated using MeOAMVN

SMILES: [O-][S+](Cc1ccccc1)SCc1ccccc1 (stereo not shown) [BPT, S-Benzyl phenylmethane thiosulfinate]
- effect on oxidation of liposome-embedded H2B-PMHC with one equivalent of NAC [1]: little effect
- inhibition of oxidation of liposome-embedded H2B-PMHC [1]: neither 1 nor 2 were able to slow the oxidation
- efficacy relative to α-TOH in a lipid bilayer [1]: less than 1/100
- radical trapping at the lipid/water interface [1]: cannot
- half-life ([2]; liposome solutions): ~1.5 h
- kH [3]: 200000 M⁻¹ s⁻¹

SMILES: CC(=O)N[C@@H](CS)C(=O)O [NAC, N-acetylcysteine]
- effect of NAC alone on oxidation ([1]; ABAP-mediated, 4.5, 7.5 and 15 μM): only a modest retarding effect
- effect of NAC alone on oxidation ([1]; MeOAMVN-mediated, 4.5, 7.5 and 15 μM): does little

SMILES: [O-][S+](Cc1ccco1)SCc1ccco1 (stereo not drawn) [S-(furan-2-ylmethyl) furan-2-ylmethanesulfinothioate]
- kinh/kinh (C6BPT) [4]: 1.1

SMILES: C=CCS[S+]([O-])CC=C (stereo not shown) [compound 1, allicin]
- effect on oxidation of liposome-embedded H2B-PMHC with one equivalent of NAC [1]: little effect
- inhibition of oxidation of liposome-embedded H2B-PMHC [1]: neither 1 nor 2 were able to slow the oxidation
- efficacy relative to α-TOH in a lipid bilayer [1]: less than 1/100
- radical trapping at the lipid/water interface [1]: cannot
- extension of half-life for decomposition in liposome solutions compared to non-H-bonding organic solvents ([2]; HPLC): 50%

SMILES: OSC12c3ccccc3C(c3ccccc31)c1ccccc12 [compound 5, 9-triptycenesulfenic acid]
- effect of increasing equivalents of NAC on inhibited period [1]: the inhibited period was extended with increasing concentration of NAC
- inhibition of oxidation of liposome-embedded H2B-PMHC [1]: excellent concentration-dependent radical-trapping activity
- rate of H2B-PMHC oxidation (fluorescence increase) ([1]; MeOAMVN-mediated, in presence of compound): essentially nil
- number of peroxyl radicals trapped (stoichiometry) ([1]; implied from slope relative to 8): one
- slope of inhibited period versus concentration ([1]; radicals generated using AAPH): 10 min/µM
- slope of inhibited period versus concentration [1, 7]: 14 min/µM
- radical trapping at the lipid/water interface [1]: can trap radicals at the lipid/water interface

SMILES: Cc1c(C)c2c(c(C)c1O)CC[C@@](C)(CCC[C@H](C)CCC[C@H](C)CCCC(C)C)O2 [compound 7, α-tocopherol]
- slowing of rate of reaction with peroxyl radicals by H-bond accepting solvent [5]: 20 fold

SMILES: Cc1c(C)c2c(c(C)c1O)CCC(C)(C)O2 [compound 8, PMHC]
- slope of inhibited period versus concentration ([1]; radicals generated using AAPH): 21 min/µM
- slope of inhibited period versus concentration [1, 7]: 31 min/µM
- radical trapping at the lipid/water interface [1]: can trap radicals at the lipid/water interface
- number of peroxyl radicals trapped (stoichiometry) [6]: two

SMILES: CCCCCCc1ccc(CS[S+]([O-])Cc2ccc(CCCCCC)cc2)cc1 (stereo not shown) [compound 9]
- effect of increasing equivalents of NAC on inhibited period [1]: proportionately increased the inhibited period
- effect on oxidation of liposome-embedded H2B-PMHC with one equivalent of NAC [1]: pronounced inhibited period
- inhibition of oxidation of liposome-embedded H2B-PMHC [1]: essentially indistinguishable from those supplemented with allicin and petivericin

SMILES: CCCCCCc1ccc(CS[S+]([O-])Cc2ccc(CCCCCC)cc2)cc1 (stereo not shown) [p-n-C6H13-BPT 5, p-n-C6H13-Benzyl phenylmethane thiosulfinate]
- kinh/kinh (C6BPT) [4]: 1.0^a
- rate constant relative to that of BPT ([4]; chlorobenzene, 37° C., MeLin 0.10 M, MeOAMVN 0.01 M): about 1.6 fold
